This note sets out measurements from ChEMBL document CHEMBL4130475, “Lorneic Acid Analogues from an Endophytic Actinomycete” (J Nat Prod, 2017).

The term inhibition denotes the relative decrease from the control value, in per cent. The low end stands for a response near the control, the high end for a response far below the control.

The target in test [1] is T1, Tyrosinase (Agaricus bisporus) (UniProt O42713).
T1 sequence (whole entry): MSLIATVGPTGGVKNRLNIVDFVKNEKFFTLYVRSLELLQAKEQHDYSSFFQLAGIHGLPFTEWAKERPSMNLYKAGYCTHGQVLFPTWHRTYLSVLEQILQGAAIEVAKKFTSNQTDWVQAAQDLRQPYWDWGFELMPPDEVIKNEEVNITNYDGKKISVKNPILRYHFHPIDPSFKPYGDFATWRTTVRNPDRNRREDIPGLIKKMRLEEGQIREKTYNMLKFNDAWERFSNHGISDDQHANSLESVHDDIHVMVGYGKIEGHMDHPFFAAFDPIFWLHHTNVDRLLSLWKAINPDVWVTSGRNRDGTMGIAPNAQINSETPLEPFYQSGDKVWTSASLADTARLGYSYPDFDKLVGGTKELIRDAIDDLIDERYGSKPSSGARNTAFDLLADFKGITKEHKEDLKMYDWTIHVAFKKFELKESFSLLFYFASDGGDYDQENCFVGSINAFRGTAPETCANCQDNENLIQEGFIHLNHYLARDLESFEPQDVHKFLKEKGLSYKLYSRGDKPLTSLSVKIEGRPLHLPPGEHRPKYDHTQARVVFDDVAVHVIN
Description: Inhibition of mushroom tyrosinase at 0.19 mM using L-DOPA as substrate after 5 mins by spectrophotometric analysis relative to control.

In test [2] the target is T1, Tyrosinase (Agaricus bisporus). Description: Inhibition of mushroom tyrosinase at 0.11 mM using L-DOPA as substrate after 5 mins by spectrophotometric analysis relative to control.
Test [3] shares this target. Nature of the test: Inhibition of mushroom tyrosinase at 0.18 mM using L-DOPA as substrate after 5 mins by spectrophotometric analysis relative to control.

Each structure is given as a SMILES string.

In turn, `CC/C=C/c1cc(C)ccc1/C=C/CCCC(=O)O` showed an inhibition in test [1] of 12.9%.

In turn, `CCCC(SSCC(NC(C)=O)C(=O)O)c1cc(C)ccc1/C=C/CCCC(=O)O` (stereo not drawn) had an inhibition in test [2] of 18.9%.

On to `CCCC(O)c1cc(C)ccc1/C=C/CCCC(=O)O` (stereo not drawn), for which the inhibition in test [3] is 27%.
